Tests used:
[1] = target: mAChR M2 (Homo sapiens (Human), UniProt P08172); assay: In vitro cellular calcium flux assay, PAM, NAM and agonist modes, mAChR M2; assay type: cell-based
Method: (§1) Baby hamster kidney cells stably expressing human or rat mAChR M1 to M5 were utilised for primary and selectivity profiling activities. mAChR M2 and M4 cell lines also stably expressed the chimeric Gαqi5 G-protein.
(§2) Human mAChR M1, M3, M5 and rat M1 cells were grown in low glucose Dulbecco's Modified Eagle's Medium (DMEM) medium plus heat inactivated 10% fetal bovine serum (HI FBS) and 500 μg/ml hygromycin B^1. Human mAChR M2 and M4 cells were maintained as above with^2 the addition of 500 μg/ml G418 to the media. Cells were maintained in culture at 37° C./5% CO2 and passaged twice weekly by treatment with 0.05% Trypsin/EDTA detachment solution, centrifugation (200 g, 5 min) and re-suspension in fresh media. Following cell expansion, cells were cryopreserved at −80° C. by treatment with 0.05% Trypsin/EDTA detachment solution, centrifugation (200 g, 5 min) and re-suspension of the pellet in freezing media (90% HI FBS/10% DMSO^3) at 15E6 cells/ml^4.
(§3) Prior to assaying, cells were prepared by thawing at 37° C. in a water bath, centrifugation (200 g, 5 min) and re-suspension of the pellet in fresh media. 15000 cells per well were seeded in black, clear bottomed 384-well Greiner Bio-One plates in plating medium (DMEM/10% HI FBS) and incubated overnight at 37 C/5% CO2.
(§4) On the day of the assay, media was removed from each well and replaced with 50 μl^5 assay buffer (HBSS with 20 mM HEPES and 2.5 mM Probenecid) containing the calcium indicator, Calcium 4 (Molecular Devices). Cells were then incubated at 37° C./5% CO2 for 30 min and at room temperature.
(§5) Compound preparation was carried out by generation of 11-point, 1 in 3 serial dilution concentration response curves in 100% DMSO. Compound was then diluted 1 in 65^6 with assay buffer (HBSS with 20 mM HEPES and 2.5 mM Probenecid) prior to the addition of 10 ul^7 to the cells using a Tetra fluorometric imaging plate reader (Molecular Devices)^8. Compound driven increases in intracellular calcium flux was measured as an increase in fluorescence (494Ex, 516Em)^9.
(§6) Positive allosteric modulator pEC50 values and antagonist pIC50 values for each compound were then determined. […] The points of modification and the alternate reagents, concentrations or equipment employed in these examples were: ^1200 μg/ml hygromycin B; ^2G418 not added; ^3CELLBANKER 1; ^410E6; ^5 40 μl; ^6 1 in 99; ^7 20 μl; ^8FDSS6000 (Hamamatsu Photonics); ^9(480Ex, 540Em); ^10Spotfire (TIBCO).
(§7) Certain compounds were tested in PAM, NAM and agonist modes against mAChR M2, M3, M4 and M5.

[2] = target: mAChR M3 (Homo sapiens (Human), UniProt P20309); assay: In vitro cellular calcium flux assay, PAM, NAM and agonist modes, mAChR M3; assay type: cell-based
Sequence of mAChR M3 (P20309 whole entry, looked up): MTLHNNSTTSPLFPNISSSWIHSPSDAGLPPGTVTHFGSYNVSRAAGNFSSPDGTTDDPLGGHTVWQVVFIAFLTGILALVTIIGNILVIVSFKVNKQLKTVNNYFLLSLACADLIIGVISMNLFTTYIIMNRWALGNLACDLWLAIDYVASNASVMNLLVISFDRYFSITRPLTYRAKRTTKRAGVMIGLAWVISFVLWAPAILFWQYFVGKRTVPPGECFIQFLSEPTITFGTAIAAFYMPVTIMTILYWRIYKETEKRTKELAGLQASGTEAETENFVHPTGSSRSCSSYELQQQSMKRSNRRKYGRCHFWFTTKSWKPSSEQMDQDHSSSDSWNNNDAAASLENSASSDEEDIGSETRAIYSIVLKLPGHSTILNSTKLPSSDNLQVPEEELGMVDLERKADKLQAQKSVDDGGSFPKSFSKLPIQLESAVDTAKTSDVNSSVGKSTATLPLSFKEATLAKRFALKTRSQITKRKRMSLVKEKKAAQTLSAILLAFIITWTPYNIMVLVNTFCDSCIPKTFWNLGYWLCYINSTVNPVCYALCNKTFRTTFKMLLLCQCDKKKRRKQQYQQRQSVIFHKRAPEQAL
Method: as §1, §2, §3, §4, §5, §6, §7

[3] = target: mAChR M4 (Homo sapiens (Human), UniProt P08173); assay: In vitro cellular calcium flux assay, PAM, NAM and agonist modes, mAChR M4; assay type: cell-based
Sequence of mAChR M4 (P08173 whole entry): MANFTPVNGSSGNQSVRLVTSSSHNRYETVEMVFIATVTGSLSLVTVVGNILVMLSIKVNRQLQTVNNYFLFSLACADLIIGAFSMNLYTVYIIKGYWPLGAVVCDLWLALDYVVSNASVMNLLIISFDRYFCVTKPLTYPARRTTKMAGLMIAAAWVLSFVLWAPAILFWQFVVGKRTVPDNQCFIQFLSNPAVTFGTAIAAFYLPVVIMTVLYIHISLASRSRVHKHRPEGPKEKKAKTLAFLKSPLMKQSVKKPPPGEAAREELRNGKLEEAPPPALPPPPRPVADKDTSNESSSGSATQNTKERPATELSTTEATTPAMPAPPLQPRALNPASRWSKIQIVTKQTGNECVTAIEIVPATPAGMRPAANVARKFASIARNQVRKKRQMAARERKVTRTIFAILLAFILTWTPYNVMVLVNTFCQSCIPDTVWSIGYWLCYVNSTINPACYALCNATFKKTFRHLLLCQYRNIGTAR
Method: as §1, §2, §3, §4, §5, §6, §7

[4] = system: male Crlj: WI rats; assay: Morris Water Maze Test in Ibotenic Acid-Induced Learning Disability Model; assay type: in vivo, rat; conditions: for Swimming time in 4th quadrant / Frequency of entry into platform area: probe trial
Method: Ibotenic acid at 5 μg/0.5 μL was injected into both basal nuclei of 8-week old male Crlj: WI rats, and a Morris water maze test was performed 10-14 days after ibotenic acid injection. It has been reported that rats in which basal forebrain was lesioned by ibotenic acid injection show learning disability in the Morris water maze test. (Pharmacopsychiat, 1999, 32, 242-247). The test is considered a model of spatial learning and memory.
Learning trials were performed twice a day at an interval of 3 hours for 4 days (8 times in total), and probe trials were performed once the day after completion of the learning trials. Each test compound was dissolved in a 0.5% methylcellulose in water and orally administered 1 hour before the first trial on each day of the learning trials and 1 hour before the trial on the day of the probe trials.
A colorless clear acrylic platform (diameter: about 12 cm, height: about 30 cm) and a gray vinyl chloride circular pool (diameter: about 148 cm, height: about 44 cm), which was filled with water (temperature: 17-18° C.) up to a height of about 32 cm so that the platform was fully immersed in water, were used as the test device. Four quadrants were prepared at the bottom of the pool, and the platform was set at the center of 1 of the 4 quadrants (about 37 cm from the center of the pool). A light bulb was placed near the quadrant with the platform as a spatial cue.
In learning trials, the animal was put into water and goal latency and swimming distance to reach the platform were measured (measurement time: 90 seconds at the longest) by a video image behavioral analysis device (Etho Vision XT, Noldus Information Technology Inc.). When an animal reached the platform within 90 seconds and stayed on the platform for 30 seconds, it was judged that the animal recognized the position of the platform, and the measurement was finished.
In probe trials, the platform was removed from the pool. The animal was put into water, and the swimming time in the quadrant where the platform had been located in the learning trials and the frequency of entry into the platform area where the platform had been located in the learning trials were measured by Etho Vision XT.
Each value was shown as an average and a standard error (n=10). The statistical significance between a control group and a vehicle group was analyzed by the independent t-test. The statistical significance between the vehicle group and each sample group was analyzed by one-way analysis of variance and then by Dunnett's multiple comparison test. The significance level was set to 5% on both sides. […] The analysis was carried out by using SAS system (SAS Institute Japan Ltd.).

Sequence of mAChR M2 (P08172 whole entry): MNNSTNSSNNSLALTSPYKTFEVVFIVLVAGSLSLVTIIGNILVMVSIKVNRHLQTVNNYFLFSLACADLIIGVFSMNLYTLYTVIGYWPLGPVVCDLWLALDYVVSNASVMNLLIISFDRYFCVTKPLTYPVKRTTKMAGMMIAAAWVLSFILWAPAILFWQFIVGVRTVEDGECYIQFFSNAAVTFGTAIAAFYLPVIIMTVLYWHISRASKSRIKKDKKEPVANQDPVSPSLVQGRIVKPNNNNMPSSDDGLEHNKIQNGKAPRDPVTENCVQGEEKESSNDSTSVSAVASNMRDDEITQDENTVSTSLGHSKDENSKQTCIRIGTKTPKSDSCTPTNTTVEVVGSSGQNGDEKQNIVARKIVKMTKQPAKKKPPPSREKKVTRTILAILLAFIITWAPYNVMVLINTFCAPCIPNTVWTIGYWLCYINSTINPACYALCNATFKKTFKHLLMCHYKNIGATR

`O=C(N[C@H]1CCCC[C@@H]1O)c1cn(Cc2ccc(F)cc2)c2cccnc12` [Example 5, 1-(4-Fluorobenzyl)-N-((1S,2S)-2-hydroxycyclohexyl)-1H-pyrrolo[3,2-b]pyridine-3-carboxamide] was tested, and the EC50 [1] was greater than 10 µM, the EC50 [2] was greater than 10 µM and the EC50 [3] was greater than 10 µM. For the same compound, the Goal latency ([4]; Trial 1, 0.1 mg/kg p.o.) was “[90 ± 0.00] sec”, the Swimming distance ([4]; Trial 1, 0.1 mg/kg p.o.) was “[2152.96 ± 91.73] cm” and the Goal latency ([4]; Trial 1, 0.3 mg/kg p.o.) was “[90 ± 0.00] sec”. For the same compound, the Swimming distance ([4]; Trial 1, 0.3 mg/kg p.o.) was “[2400.75 ± 122.49] cm”, the Goal latency ([4]; Trial 2, 0.1 mg/kg p.o.) was “[90 ± 0.00] sec” and the Swimming distance ([4]; Trial 2, 0.1 mg/kg p.o.) was “[2353.99 ± 145.71] cm”. For the same compound, the Goal latency ([4]; Trial 2, 0.3 mg/kg p.o.) was “[89.47 ± 0.53] sec”, the Swimming distance ([4]; Trial 2, 0.3 mg/kg p.o.) was “[2533.19 ± 86.87] cm” and the Goal latency ([4]; Trial 3, 0.1 mg/kg p.o.) was “[78.81 ± 8.1] sec”. The Swimming distance ([4]; Trial 3, 0.1 mg/kg p.o.) was “[1884.79 ± 174.8] cm”, the Goal latency ([4]; Trial 3, 0.3 mg/kg p.o.) was “[75.08 ± 7.99] sec” and the Swimming distance ([4]; Trial 3, 0.3 mg/kg p.o.) was “[1945.42 ± 189.94] cm”. The Goal latency ([4]; Trial 4, 0.1 mg/kg p.o.) was “[79.59 ± 7.36] sec”, the Swimming distance ([4]; Trial 4, 0.1 mg/kg p.o.) was “[1822.32 ± 206.29] cm” and the Goal latency ([4]; Trial 4, 0.3 mg/kg p.o.) was “[60.53 ± 12.15]# sec”. The Swimming distance ([4]; Trial 4, 0.3 mg/kg p.o.) was “[1592.82 ± 308.21] cm”, the Goal latency ([4]; Trial 5, 0.1 mg/kg p.o.) was “[83.06 ± 4.7] sec” and the Swimming distance ([4]; Trial 5, 0.1 mg/kg p.o.) was “[1918.78 ± 132.12] cm”. For the same compound, the Goal latency ([4]; Trial 5, 0.3 mg/kg p.o.) was “[53.99 ± 10.18]## sec”, the Swimming distance ([4]; Trial 5, 0.3 mg/kg p.o.) was “[1417.94 ± 229.44]## cm” and the Goal latency ([4]; Trial 6, 0.1 mg/kg p.o.) was “[66.13 ± 12.22] sec”. For the same compound, the Swimming distance ([4]; Trial 6, 0.1 mg/kg p.o.) was “[1464.97 ± 308.91] cm”, the Goal latency ([4]; Trial 6, 0.3 mg/kg p.o.) was “[33.09 ± 9.78]## sec” and the Swimming distance ([4]; Trial 6, 0.3 mg/kg p.o.) was “[876.2 ± 203.14]## cm”. For the same compound, the Goal latency ([4]; Trial 7, 0.1 mg/kg p.o.) was “[76.97 ± 8.11] sec”, the Swimming distance ([4]; Trial 7, 0.1 mg/kg p.o.) was “[1839.16 ± 221.78] cm” and the Goal latency ([4]; Trial 7, 0.3 mg/kg p.o.) was “[50.1 ± 10.02]## sec”. The Swimming distance ([4]; Trial 7, 0.3 mg/kg p.o.) was “[1329.27 ± 236.21]## cm”, the Goal latency ([4]; Trial 8, 0.1 mg/kg p.o.) was “[67.24 ± 10.13] sec” and the Swimming distance ([4]; Trial 8, 0.1 mg/kg p.o.) was “[1492.52 ± 260.05] cm”. The Goal latency ([4]; Trial 8, 0.3 mg/kg p.o.) was “[38.02 ± 10.74]## sec”, the Swimming distance ([4]; Trial 8, 0.3 mg/kg p.o.) was “[1020.57 ± 253.94]## cm” and the “Swimming time in 4th quadrant” value ([4]; 0-30 sec., 0.1 mg/kg p.o.) was “[8.90 ± 1.02]# sec”. The “Swimming time in 4th quadrant” value ([4]; 0-30 sec., 0.3 mg/kg p.o.) was “[7.19 ± 1.11] sec”, the “Frequency of entry into platform area” value ([4]; 0.1 mg/kg p.o.) was “[0.9 ± 0.3]” and the “Frequency of entry into platform area” value ([4]; 0.3 mg/kg p.o.) was “[1.7 ± 0.5]##”. For the same compound, the “Swimming time in 4th quadrant” value ([4]; 30-60 sec., 0.1 mg/kg p.o.) was “[9.41 ± 1.80]# sec”, the “Swimming time in 4th quadrant” value ([4]; 30-60 sec., 0.3 mg/kg p.o.) was “[8.48 ± 1.25] sec” and the “Swimming time in 4th quadrant” value ([4]; 60-90 sec., 0.1 mg/kg p.o.) was “[7.74 ± 0.85] sec”. The “Swimming time in 4th quadrant” value ([4]; 60-90 sec., 0.3 mg/kg p.o.) was “[7.49 ± 1.37] sec”, the “Swimming time in 4th quadrant” value ([4]; Total, 0.1 mg/kg p.o.) was “[26.05 ± 2.03]## sec” and the “Swimming time in 4th quadrant” value ([4]; Total, 0.3 mg/kg p.o.) was “[23.16 ± 2.97] sec”.

Source: patent publication US10072005B2, “4-azaindole derivatives” (EISAI R&D MANAGEMENT CO., LTD., priority 2013, dated 2018)
